Columns and labels:
[1] = system: T. brucei; settings: spiro carbocyclic 2,6-DKP-1-acetohydroxamic acids 1-5 reported previously; cited from earlier work
[2] = system: bloodstream form T. b. brucei (strain 221); assay: Growth inhibition of cultured bloodstream-form T. brucei (resazurin); type: cell-based, Trypanosoma brucei; settings: for IC50 / IC90: cultured bloodstream-form Trypanosoma brucei, pH = 7.4, mean of triplicate ± SEM; for IC50: concentration inhibiting growth by 50%; for IC90: concentration inhibiting growth by 90%; for trypanocidal activity (in words): bloodstream-form T. brucei; for times more potent than the unsubstituted parent / times more potent than the nonmethylated counterpart / times more potent than 18: T. brucei IC50; for times more potent than the unsubstituted parent: 19 and 20 vs 18, 25 vs 24, 28 vs 27; for times more potent than the nonmethylated counterpart: 21 vs 18, 22 vs 19, 23 vs 20, 26 vs 24
Description: The new hydroxamic acid derivatives 18–28 were tested against bloodstream-form T. brucei in vitro. The results are presented in Table 1, and are expressed as IC50 and IC90 values. […]
Reference: minimized structure, heterocycle and adamantane cage).
IV. Experimental procedures for the biological evaluation of the compounds
Growth inhibition analysis was carried out using bloodstream form T. b. brucei (strain 221) cultured at
37 °C, as previously described.8 Briefly, experiments were performed using 96-well microtiter plates (200
μL volumes), with each assay initiated with 2.5 x10^4 parasites mL−1, and test compounds then added at 7
concentrations in a range that had been established in preliminary experiments to encompass both EC50
and EC90 values. Plates were incubated for 48 hours, resazurin (20 μL at 0.125 mg mL−1) was then added,
and the plates re-incubated for 16 hours. Fluorescence was determined using a BMG FLUOstar Omega plate
reader (excitation 545 nm, emission 590 nm), and the data analysed using GraphPad Prism 9.0 software.
The data are expressed as IC50/IC90 ± SD, and are the average of 3 independent replicates. […]

[3] = Cytotoxicity against cultured rat skeletal myoblast L6 cells (resazurin); type: cell-based; settings: rat, L6 rat skeletal myoblast cells, cultured rat skeletal myoblast L6 cells; mean of triplicate ± SEM
Description: (§1) To determine cytotoxicity, L6 cells (a rat myoblast line) were seeded at 1x104 mL−1 into 96-well microtiter plates (200 μL of growth medium), at a range of compound concentrations. After 6 days incubation at 37°C, 20 μL resazurin (0.125 mg mL−1) was added to each well. The plates were incubated for 6 hours, and fluorescence determined by plate reader, as above. […]

[4] = system: L6 cells (a rat myoblast line); assay: as above; type: cell-based; settings: for Selectivity indices (SIs): ratio of the IC50 for L6 cells and T. brucei; for IC50: cultured rat skeletal myoblast L6 cells, mean of triplicate ± SEM
Description: as §1

O=C(CN1C(=O)CNC2(C1=O)C1CC3CC(C1)CC2C3)NO (stereo not drawn) [Compound 1a]
IC50 [1]: 90 nM

CN1CC(=O)N(CC(=O)NO)C(=O)C12C1CC3CC(C1)CC2C3 (stereo not drawn) [Compound 1b]
IC50 [1]: 193 nM

C[C@@H]1NC2(C(=O)N(CC(=O)NO)C1=O)C1CC3CC(C1)CC2C3 (stereo partly drawn) [Compound 1c]
IC50 [1]: 134 nM

CC(C)C[C@@H]1NC2(C(=O)N(CC(=O)NO)C1=O)C1CC3CC(C1)CC2C3 (stereo partly drawn) [Compound 1d]
IC50 [1]: 283 nM

CSCC[C@@H]1NC2(C(=O)N(CC(=O)NO)C1=O)C1CC3CC(C1)CC2C3 (stereo partly drawn) [Compound 1e]
IC50 [1]: 168 nM

O=C(CN1C(=O)[C@H](Cc2ccccc2)NC2(C1=O)C1CC3CC(C1)CC2C3)NO (stereo partly drawn) [Compound 1f]
IC50 [1]: 6.8 nM

O=C(CN1C(=O)[C@@H](Cc2ccccc2)NC2(C1=O)C1CC3CC(C1)CC2C3)NO (stereo partly drawn) [Compound 1g]
IC50 [1]: 9.1 nM

O=C(CN1C(=O)C(Cc2ccccc2)NC2(C1=O)C1CC3CC(C1)CC2C3)NO (stereo not drawn) [Compound 2]
IC50 [1]: 17 nM

O=C(CN1C(=O)C(Cc2ccc(Cl)cc2)NC2(C1=O)C1CC3CC(C1)CC2C3)NO (stereo not drawn) [Compound 3]
IC50 [1]: 32 nM

O=C(CN1C(=O)CNC2(CCCCCCC2)C1=O)NO [Compound 4a]
IC50 [1]: 300 nM

CN1CC(=O)N(CC(=O)NO)C(=O)C12CCCCCCC2 [Compound 4b]
IC50 [1]: 158 nM

C[C@@H]1NC2(CCCCCCC2)C(=O)N(CC(=O)NO)C1=O [Compound 4c]
IC50 [1]: 125 nM

CC(C)C[C@@H]1NC2(CCCCCCC2)C(=O)N(CC(=O)NO)C1=O [Compound 4d]
IC50 [1]: 72 nM

O=C(CN1C(=O)[C@H](Cc2ccccc2)NC2(CCCCCCC2)C1=O)NO [Compound 4f]
IC50 [1]: 29 nM

O=C(CN1C(=O)CNC2(CCCCCC2)C1=O)NO [Compound 5a]
IC50 [1]: 1870 nM

CN1CC(=O)N(CC(=O)NO)C(=O)C12CCCCCC2 [Compound 5b]
IC50 [1]: 285 nM

O=C(CNC(=O)CN1C(=O)CNC2(C1=O)C1CC3CC(C1)CC2C3)NO (stereo not drawn) [Compound 18]
fold loss in potency ([2]; T. brucei IC50 relative to compound 1a (insertion of acetamido portion)): 278 fold | IC50 ([2]; Trypanosoma brucei): 25000 ± 3000 nM | IC90 ([2]; Trypanosoma brucei): 36000 ± 2000 nM | trypanocidal activity (in words) [2]: marginal activity

CC(C)C[C@@H]1NC2(C(=O)N(CC(=O)NCC(=O)NO)C1=O)C1CC3CC(C1)CC2C3 (stereo partly drawn) [Compound 19]
times more potent than the unsubstituted parent [2]: 62 fold | IC50 ([2]; Trypanosoma brucei): 400 ± 90 nM | IC90 ([2]; Trypanosoma brucei): 980 ± 50 nM | IC50 at 6 days [3]: 35000 ± 4000 nM | Selectivity indices (SIs) [4]: 90

Cl.O=C(CNC(=O)CN1C(=O)[C@H](Cc2ccccc2)NC2(C1=O)C1CC3CC(C1)CC2C3)NO (stereo partly drawn) [Compound 20.HCl]
IC50 [2]: 1530 nM | IC90 [2]: 4260 nM | IC50 [4]: 25000 nM | Selectivity indices (SIs) [4]: 16

O=C(CNC(=O)CN1C(=O)[C@H](Cc2ccccc2)NC2(C1=O)C1CC3CC(C1)CC2C3)NO (stereo partly drawn) [Compound 20]
times more potent than the unsubstituted parent [2]: 20 fold | IC50 ([2]; Trypanosoma brucei): 1230 ± 200 nM | IC90 ([2]; Trypanosoma brucei): 4880 ± 740 nM | IC50 at 6 days [3]: 29000 ± 2000 nM | Selectivity indices (SIs) [4]: 24

CN(CC(=O)NO)C(=O)CN1C(=O)CNC2(C1=O)C1CC3CC(C1)CC2C3 (stereo not drawn) [Compound 21]
times more potent than the nonmethylated counterpart [2]: 19 fold | IC50 ([2]; Trypanosoma brucei): 1330 ± 110 nM | IC90 ([2]; Trypanosoma brucei): 3420 ± 850 nM | IC50 at 6 days [3]: 376000 ± 7000 nM | Selectivity indices (SIs) [4]: 285

CC(C)C[C@@H]1NC2(C(=O)N(CC(=O)N(C)CC(=O)NO)C1=O)C1CC3CC(C1)CC2C3 (stereo partly drawn) [Compound 22]
times more potent than 18 [2]: 735 fold | times more potent than the nonmethylated counterpart [2]: 12 fold | IC50 ([2]; Trypanosoma brucei): 34 ± 2 nM | IC90 ([2]; Trypanosoma brucei): 57 ± 5 nM | IC50 at 6 days [3]: 32000 ± 3000 nM | Selectivity indices (SIs) [4]: 940

CN(CC(=O)NO)C(=O)CN1C(=O)[C@H](Cc2ccccc2)NC2(C1=O)C1CC3CC(C1)CC2C3 (stereo partly drawn) [Compound 23]
times more potent than 18 [2]: 472 fold | times more potent than the nonmethylated counterpart [2]: 23 fold | IC50 ([2]; Trypanosoma brucei): 53 ± 11 nM | IC90 ([2]; Trypanosoma brucei): 81 ± 3 nM | IC50 at 6 days [3]: 25000 ± 2000 nM | Selectivity indices (SIs) [4]: 470

O=C(CNC(=O)CN1C(=O)CNC2(CCCCCCC2)C1=O)NO [Compound 24]
IC50 ([2]; Trypanosoma brucei): > 300000 nM | IC90 ([2]; Trypanosoma brucei): > 300000 nM | trypanocidal activity (in words) [2]: inactive

CC(C)C[C@@H]1NC2(CCCCCCC2)C(=O)N(CC(=O)NCC(=O)NO)C1=O.Cl [Compound 25.HCl]
IC50 [2]: 850 nM | IC90 [2]: 1710 nM | IC50 [4]: 249000 nM | Selectivity indices (SIs) [4]: 295

CC(C)C[C@@H]1NC2(CCCCCCC2)C(=O)N(CC(=O)NCC(=O)NO)C1=O [Compound 25]
times more potent than the unsubstituted parent [2]: > 252 fold | IC50 ([2]; Trypanosoma brucei): 1190 ± 280 nM | IC90 ([2]; Trypanosoma brucei): 1900 ± 100 nM | IC50 at 6 days [3]: 223000 ± 28000 nM | Selectivity indices (SIs) [4]: 185

CN(CC(=O)NO)C(=O)CN1C(=O)CNC2(CCCCCCC2)C1=O [Compound 26]
times more potent than the nonmethylated counterpart [2]: > 8 fold | IC50 ([2]; Trypanosoma brucei): 38000 ± 8000 nM

O=C(CNC(=O)CN1C(=O)CNC2(CCCCCC2)C1=O)NO [Compound 27]
IC50 ([2]; Trypanosoma brucei): > 30000 nM | trypanocidal activity (in words) [2]: inactive

CC(C)C[C@@H]1NC2(CCCCCC2)C(=O)N(CC(=O)NCC(=O)NO)C1=O [Compound 28]
times more potent than the unsubstituted parent [2]: > 18 fold | IC50 ([2]; Trypanosoma brucei): 1650 ± 130 nM | IC90 ([2]; Trypanosoma brucei): 3330 ± 130 nM | IC50 at 6 days [3]: 390000 ± 6000 nM | Selectivity indices (SIs) [4]: 235

— article PMC11247629, “New Lipophilic Hydroxamates as Promising Trypanocidal Agents: Design, Synthesis, SAR, and Conformational Behavior Studies” (ACS Medicinal Chemistry Letters, 2024)
